Source: patent publication US4283394A, “Cytotoxic nucleoside-corticosteroid phosphodiesters” (priority 1979, dated 1981)

How the values were obtained:
[1] = system: crude wheat germ acid phosphatase; assay: Enzymatic cleavage by acid phosphatase; format: in vitro ADME; details: pH 4.8, 25° C., 24 h; for percent hydrolyzed by acid phosphatase: 3 mg enzyme
Description: (§1) Enzymatic cleavage of the phosphodiester bond of the conjugates was studied by incubating the conjugates (5 μmol) with various enzymes (1.5-3 mg) in appropriate buffer and with plasma (final volume 0.5 ml). An aliquot (200 μl) of the 24 h incubation mixtures was streaked on Whatman 3 MM paper (23×57 cm) with the authentic markers and the paper was developed in Solvent A. The bands were characterized and analyzed semi-quantitatively by UV estimation of the chromatographs. […] The conjugates also remained 60-85 percent intact during the incubation with baboon plasma at 37° C. for 24 h. From the results of these tests, conjugates of this type appear capable of serving as sustained release froms of the parent steroid and nucleoside components thereof.
The conjugate (5 μmol) was incubated with 0.15 M NaOAc, pH 4.8 (0.05 ml) and crude wheat germ acid phosphatase (3 mg., Sigma Chemical Co.) in 0.45 ml. of H2 O at 25° C. for 24 h. Pred-p-ara-C (I) was 86 percent hydrolyzed, the products being pred-p-ara-C (8 percent), ara-CMP (5 percent), ara-C (42 percent) and prednisolone (45 percent). Prednisone-p-ara-C (II) was 88 percent hydrolyzed, the products being prednisone-p-ara-C (7 percent), ara-CMP (4 percent), ara-C (43 percent) and prednisone (46 percent).

[2] = system: 5'-nucleotidase from Crotalus adamenteus; assay: Enzymatic cleavage by 5'-nucleotidase; format: in vitro ADME; details: pH 9.0, 24 h, 37° C.; for hydrolysis by 5'-nucleotidase: 2 mg enzyme
Description: as §1
The conjugate (5 μmol) was incubated with 1 M Tris-HCl, pH 9.0 and 0.05 M MgSO4 (0.05 ml) and purified 5'-nucleotidase from Crotalus adamenteus (2 mg., Sigma Chemical Co.) in 0.45 ml. of H2 O for 24 h at 37° C.

| SMILES | percent hydrolyzed by acid phosphatase [1] | product ara-C [1] | product ara-CMP [1] | product steroid (prednisolone or prednisone) [1] | remaining conjugate among products [1] | hydrolysis by 5'-nucleotidase [2] | product ara-C [2] | product prednisolone or prednisone [2] |
| --- | --- | --- | --- | --- | --- | --- | --- | --- |
| C[C@]12C=CC(=O)C=C1CC[C@@H]1[C@@H]2C(=O)C[C@@]2(C)[C@H]1CC[C@]2(O)C(=O)CO[P+]([O-])(O)OC[C@H]1O[C@@H](n2ccc(N)nc2=O)[C@@H](O)[C@@H]1O (stereo partly drawn) [Prednisone-p-ara-C (II), 5'-(Prednisone-21-phosphoryl)-1-β-D-arabinofuranosylcytosine] | 88% | 43% | 4% | 46% | 7% | hydrolyzed completely | 50% | 50% |
| C[C@]12C=CC(=O)C=C1CC[C@@H]1[C@@H]2[C@@H](O)C[C@@]2(C)[C@H]1CC[C@]2(O)C(=O)CO[P+]([O-])(O)OC[C@H]1O[C@@H](n2ccc(N)nc2=O)[C@@H](O)[C@@H]1O (stereo partly drawn) [Pred-p-ara-C (I), 5'-(Prednisolone-21-phosphoryl)-1-β-D-arabinofuranosylcytosine] | 86% | 42% | 5% | 45% | 8% | hydrolyzed completely | 50% | 50% |
